Entries after “also recorded” stand apart in the source; their conditions may differ.
How the values were obtained:
HIV = settings: cited from earlier work
[1] = test system: HIV PIC nuclear import (IN-eGFP labeled virus); assay: PIC nuclear import assay in HeLaP4 cells; assay type: cell-based, HIV-1; settings: 100 µM hit compound, 5 h after infection, experiment compared to DMSO
[2] = target: T1, HIV-1 IN–TRN-SR2 interaction (UniProt P12497+Q9Y5L0); assay: HIV-1 IN–TRN-SR2 AlphaScreen interaction assay; assay type: binding; settings: evaluation as positive control, Fig. 2b
T1 construct: N-terminally His6-tagged and untagged IN; made in house; host or cells: E. coli BL21-CodonPlus2 (DE3)
T1 sequence (Q9Y5L0 whole entry, other chains not shown): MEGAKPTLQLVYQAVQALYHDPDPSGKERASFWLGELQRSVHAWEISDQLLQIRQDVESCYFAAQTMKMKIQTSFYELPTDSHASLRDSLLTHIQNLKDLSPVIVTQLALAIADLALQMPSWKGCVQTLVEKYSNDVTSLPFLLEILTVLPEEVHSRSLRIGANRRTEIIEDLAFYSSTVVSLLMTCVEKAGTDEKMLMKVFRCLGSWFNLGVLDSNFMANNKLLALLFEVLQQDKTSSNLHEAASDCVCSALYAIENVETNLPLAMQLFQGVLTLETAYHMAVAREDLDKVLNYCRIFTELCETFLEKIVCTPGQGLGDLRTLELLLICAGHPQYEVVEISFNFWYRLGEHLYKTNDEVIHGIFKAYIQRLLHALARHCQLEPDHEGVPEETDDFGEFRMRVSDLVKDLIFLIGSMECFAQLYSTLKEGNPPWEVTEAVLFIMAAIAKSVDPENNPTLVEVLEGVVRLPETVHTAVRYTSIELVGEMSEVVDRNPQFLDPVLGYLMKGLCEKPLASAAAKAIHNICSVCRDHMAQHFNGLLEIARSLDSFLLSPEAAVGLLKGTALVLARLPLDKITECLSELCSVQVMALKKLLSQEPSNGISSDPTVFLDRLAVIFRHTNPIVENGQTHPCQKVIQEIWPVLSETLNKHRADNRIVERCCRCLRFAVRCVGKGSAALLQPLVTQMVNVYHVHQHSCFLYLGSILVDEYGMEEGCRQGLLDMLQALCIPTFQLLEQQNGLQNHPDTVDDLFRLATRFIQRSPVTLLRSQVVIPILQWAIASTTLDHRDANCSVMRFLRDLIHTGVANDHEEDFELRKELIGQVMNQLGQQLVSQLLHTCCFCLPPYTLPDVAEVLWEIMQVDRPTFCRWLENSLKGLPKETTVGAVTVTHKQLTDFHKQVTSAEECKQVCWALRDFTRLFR
Procedure: Compound stocks were dissolved at approximately 5 mM in dimethylsulfoxide (DMSO) in 96-well plates. Stocks were first diluted to 125 µM in assay buffer (150 mM NaCl, 25 mM Tris–HCl pH 7.4, 1 mM MgCl2, 0.1% (v/v) Tween-20 and 0.1% (w/v) bovine serum albumin (BSA)) supplemented with 2.5% (v/v) DMSO before 10 µl was transferred to a dry 384-well PS 384-OptiPlate (Perkin Elmer) on a Freedom EVO200 liquid handling robot (Tecan). Untagged TRN-SR2 at 2.5 µM and assay buffer containing 5% DMSO were transferred from a separate 96-well plate to the assay plates and represented the positive and negative controls, respectively. Next, 5 µl each of 5× working dilutions of GST-TRN-SR2 and His6-IN were added using an XRD-384 automated reagent dispenser (FluidX). The plate was left to incubate for 1 h at 7 °C before 5 µl of a glutathione donor and Ni^2+-chelate acceptor AlphaScreen bead mixture (Perkin Elmer) was added. […]
Development of robust high-throughput assays requires optimal buffer conditions in which both proteins and the detection method are stable and reproducible. […] This experience allowed us to readily adapt an assay buffer to meet the requirements for a high-throughput screen (HTS) for inhibitors of the interaction. […]

## Cc1[nH]c2ccccc2c1CC(=O)N[C@@H](Cc1ccccc1)C(=O)N(C)c1ccccc1 [PF74, PF-3450074]
HIV; higher concentrations (10 µM)
  Inhibition of reverse transcription (in words): inhibits reverse transcription at higher concentrations
HIV; low concentrations (2 µM)
  Inhibition of HIV nuclear import (in words): known to inhibit nuclear import at low concentrations

## Cc1nnc(C(=O)NC(C)(C)c2nc(C(=O)NCc3ccc(F)cc3)c(O)c(=O)n2C)o1 [Ral, Raltegravir]
[1]
  % nuclear PICs (mean): 4.5%

## Untagged TRN-SR2: untagged recombinant Transportin-SR2 protein, positive control of the AlphaScreen
[2]
  Inhibition of the IN–TRN-SR2 AlphaScreen signal by untagged protein (titration, in words): could block the interaction completely; also recorded: did inhibit the signal

Source: article PMC5767004, “Inhibitors of the integrase–transportin-SR2 interaction block HIV nuclear import” (Retrovirology, 2018)
